# Key:
# [1] = tested on: CD56+ human NK cells; assay: Dose response of human NK cell proliferation in CFSE labeled PBMCs (Example 8); type: cell-based; settings: 5 days
# Protocol: Human peripheral blood mononuclear cell (PBMCs) labeled with a CFSE preparation were incubated for 5 days in vitro in the presence of increasing doses of rhIL-15 (dose range 1 ng/ml-100 ng/ml, 5 point, 3 fold dilutions) or a long-acting IL-15 receptor agonist (mono(mPEG-butanamide)IL-15) (dose range 10 ng/ml-1000 ng/ml, 5 point, 3 fold dilutions). After the incubation period, cell proliferation as indicated by the decrease of CFSE in the cells that had undergone cell doublings was measured with flow cytometry measuring CFSE levels in CD56+ human NK cells within the PBMCs preparation.
# [2] = tested on: HCT-116 cells; assay: ADCC of cetuximab-coated HCT-116 cells by primed human NK cells (Example 20); type: cell-based; settings: NK cells primed with 300 ng/mL overnight; cetuximab 30 ug/mL; E:T 10:1, 3 hours
# Protocol: (§1) Human NK cells were magnetically sorted from normal donor PBMCs using negative selection. NK cells were seeded in a 96-well U-bottom plate at a density of 400,000 cells/well. NK cells were stimulated with mono(methoxyPEG-N-butanamide)40 kD interleukin-15 (Compound 1) (300 ng/mL) (+) or left unstimulated (−) in complete RPMI-1640 media supplemented with 10% fetal bovine serum (FBS) and 1% antibiotic/antimycotic overnight at 37° C. in 5% CO2.
# The colonic human HCT-116 cells (ATCC #CCL-247) were cultured McCoy 5A media (ATCC+30-2007) supplemented with 10% fetal bovine serum (FBS) and 1% antibiotic/antimycotic at 37° C. in 5% CO2. HCT-116 cells were subcultured by incubating in 0.25% Trypsin-0.53 mM EDTA for 5 min at 37° C., washed in sterile PBS, resuspended in culture media, counted, and co-cultured with the NK cells using an effector:target (E:T) of 10:1. […] Following incubation, cells were washed in flow staining buffer, Fc-blocked for 15 min at 4° C., and surface-stained (EpCAM, CD45, CD56, CD3-fluorescently conjugated antibodies) for 20 min at 4° C. in the dark. The cells were washed in PBS and incubated in 7-aminoactinomycin (7-AAD) viability stain for 30 minutes at 4° C. before acquiring for flow cytometric analysis using a Fortessa (BD). The percentage of 7-AAD+CD45-EpCAM+ target cells from total cell population is the percentage for dead tumor cells.
# [3] = tested on: human multiple myeloma RPMI-8226 cells; assay: NK cell cytotoxicity (ADCC) against daratumumab pre-coated RPMI-8226 cells (Example 9); type: cell-based; settings: NK cells primed with 1000 ng/mL overnight; targets pre-coated with daratumumab 100 ng/mL; E:T 10:1, 3 hr
# Protocol: Human NK cells were magnetically sorted from normal donor PBMCs using negative selection. NK cells were seeded in a 96-well U-bottom plate at a density of 400,000 cells/well. NK cells were stimulated with 1000 ng/mL of a long-acting IL-15 receptor agonist (mono(mPEG-butanamide)IL-15) (+) or left unstimulated (−) in complete RPMI-1640 media supplemented with 10% fetal bovine serum (FBS) and 1% antibiotic/antimycotic overnight at 37° C. in 5% CO2.
# The human multiple myeloma RPMI-8226 cells (ATCC #CCL-155) were washed in PBS and stained with 0.15 μM CFSE for 5 min at 37° C. The tumor cells were pre-coated with 100 ng/mL daratumumab (+) for 1 hr at 37° C. where indicated. The stimulated NK cells (effector cells) and the pre-coated CFSE-labeled tumor cells (target cells) were co-cultured in an E:T ratio of 10:1 for 3 hr at 37° C. in 5% CO2. Following incubation, cells were washed in flow staining buffer, Fc-blocked for 15 min at 4° C., and surface-stained (CD45, CD56, CD3-fluorescently conjugated antibodies). The cells were washed in PBS and incubated in 7-aminoactinomycin (7-AAD) viability stain for 30 minutes at 4° C. before acquiring for flow cytometric analysis using a Fortessa (BD). The percentage of 7-AAD+CFSE+ target cells from total cell population is the percentage for dead tumor cells.
# [4] = tested on: SKOV-3 cells; assay: Tumor growth inhibition in SKOV-3 ovarian carcinoma model (Example 21); type: in vivo, mice; settings: 35 days after treatment initiation; trastuzumab 13.5 mg/kg IV x6; Compound 1 0.3 mg/kg IV x3
# Protocol: Tumor growth inhibition in inoculated mice was measured 35 days after treatment initiation.
# [5] = tested on: FaDu cells; assay: ADCC of cetuximab-coated FaDu cells by primed human NK cells (Example 20); type: cell-based; settings: NK cells primed with 300 ng/mL overnight; cetuximab 300 ng/mL; E:T 10:1, 3 hours
# Protocol: as §1
# The epithelial/pharyngeal head and neck human FaDu cells (ATCC #HTB-43) were cultured in minimal eagle's essential media (EMEM; ATCC+30-2003) supplemented with 10% fetal bovine serum (FBS) and 1% antibiotic/antimycotic at 37° C. in 5% CO2. FaDu cells were subcultured by incubating in 0.25% Trypsin-0.53 mM EDTA for 5 min at 37° C., washed in sterile PBS, resuspended in culture media, counted, and co-cultured with the NK cells using an effector:target (E:T) of 10:1. […] Following incubation, cells were washed in flow staining buffer, Fc-blocked for 15 min at 4° C., and surface-stained (CD45, CD56, CD3-fluorescently conjugated antibodies) for 20 min at 4° C. in the dark. The cells were washed in PBS and incubated in 7-aminoactinomycin (7-AAD) viability stain for 30 minutes at 4° C. before acquiring for flow cytometric analysis using a Fortessa (BD). […]
# [6] = tested on: CD56+ human NK cells; assay: Human NK cell proliferation in CFSE labeled PBMCs (Example 5); type: cell-based; settings: 5 days; Conjugate 1 100 ng/ml; plate coated with hIgG 0.1 mg/ml
# Protocol: NK cell proliferation within a human peripheral blood mononuclear cell (PBMCs) labeled with CFSE preparation was induced in vitro. The CFSE labeled PBMCs were incubated for 5 days in vitro in the presence of (i) mono(methoxyPEG-N-butanamide)40 kD interleukin-15 (Conjugate 1) at a concentration of 100 ng/ml; (ii) on cell culture plastic that had been prior coated overnight with human total immunoglobulin G (hIgG) solution at a concentration of 0.1 mg/ml (iii) on cell culture plastic that had been prior coated overnight with human total immunoglobulin G (hIgG) solution at a concentration of 0.1 mg/ml and in the presence of Conjugate 1 at a concentration of 100 ng/ml; or (iv) on regular cell culture plastic. After the incubation period, cell proliferation as indicated by the decrease of CFSE in the cells that had undergone cell doublings was measured with flow cytometry (FIGS. 8A-8D) measuring CFSE levels in CD56+ human NK cells within the PBMCs preparation in each of the four incubation conditions.
substance,measurement,setting,value
mono(methoxyPEG-N-butanamide)40 kD interleukin-15 [Conjugate 1],EC50 (ng/ml)-% proliferation,[1],39.04 ng/mL
same,Emax-% proliferation,[1],71.6%
same,"potency in inducing human NK cell proliferation, fold less than rhIL-15",[1],approximately 17 fold
same,"ADCC, % 7-AAD+CD45-EpCAM+ target cells",[2],enhance ADCC of cetuximab-coated human solid tumor cells
same,"ADCC, % 7-AAD+ target cells",[3],enhanced ADCC of daratumumab pre-coated multiple myeloma cells
same,tumor growth inhibition,[4],no tumor growth inhibition
same,"ADCC, % 7-AAD+CD45- target cells",[5],enhance ADCC of cetuximab-coated human solid tumor cells
same,% CD56+ NK cells proliferating,[6],49.7%
